Assay results published in BindingDB's records for patent US20230382911 (Hoffmann-La Roche, 2023).

Biological target: S-adenosylmethionine synthase isoform type-2 (Homo sapiens, UniProt P31153)
Assay: Measurement of Mat2A inhibition is performed in 384 well format absorbance-based assay
Protocol: Recombinant human Mat2a (12.5 nM) and serial diluted compounds in DMSO (range of concentrations from 10 μM to […]) or controls (DMSO) are incubated for 15 minutes at room temperature (RT) in assay buffer containing 50 mM HEPES pH 7.5, 50 mM KCl, 50 mM MgCl2, 0.01% Tween 20 and 10 mM DTT. The reaction is initiated by the addition of the combined substrates ATP and Methionine, each at a final concentration of 100 μM. Final assay condition are 12.5 nM Mat2A, 100 μM ATP and Methionine Substrates and 2% DMSO. After 120 minutes of incubation at RT, the reaction is stopped by the addition of Biomol Green. The absorbance signal is measured at λ=635 nm with a multiplate reader (BMG Pherastar reader or equivalent) after 30 min of equilibration at RT.

Chain of S-adenosylmethionine synthase isoform type-2 (P31153 whole entry, canonical isoform): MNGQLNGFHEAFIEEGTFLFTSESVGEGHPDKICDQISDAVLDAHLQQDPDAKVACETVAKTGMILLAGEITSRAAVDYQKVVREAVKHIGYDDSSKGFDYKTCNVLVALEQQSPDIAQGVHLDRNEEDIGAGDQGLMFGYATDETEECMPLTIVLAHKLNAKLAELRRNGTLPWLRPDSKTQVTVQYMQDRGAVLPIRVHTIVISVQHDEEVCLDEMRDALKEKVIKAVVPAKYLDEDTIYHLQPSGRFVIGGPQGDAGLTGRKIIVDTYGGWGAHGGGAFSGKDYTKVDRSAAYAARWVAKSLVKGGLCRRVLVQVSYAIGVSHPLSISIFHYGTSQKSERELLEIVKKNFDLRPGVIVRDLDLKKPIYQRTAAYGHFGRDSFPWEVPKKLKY

| IC50 [nM] | Compound |
| --- | --- |
| 66 | COc1ccccc1C(=O)n1nc(N)c2cc(F)c(N3CCCC3)nc21 [US20230382911, Example 11] |
| 35 | Cc1ccccc1C(=O)n1nc(N)c2ccc([C@H]3[C@H](C)[C@@H]3C)nc21 [US20230382911, Example 43] |
| 13 | COc1ccccc1C(=O)n1nc(N)c2ccc([C@H]3[C@H](C)[C@@H]3C)nc21 [US20230382911, Example 44] |
